Experimental findings from PubChem BioAssay AID743500 (The Scripps Research Institute Molecular Screening Center, 2014) are described below.

Activity calls are given as the source filed them. No rule for the calls is given here.

For the assay, the system named is CCHFV L protein vOTU protease domain (Crimean-Congo hemorrhagic fever virus). Put plainly: CCHFV vOTU inhibition, late-stage follow-up, biochemical, fluorescence, Ub-AMC substrate, assay provider (AID 743500). Conditions: Recombinant vOTU, Ub-AMC cleavage fluorescence, stronger effect = higher value.

For the compound `Cc1ccc2c(c1C)-c1c(ccc(C)c1C)C(=O)C2=O`, the inhibition (at 18.9 µM) is 66.2%.
For `O=C(NC1=CC(=O)c2ccccc2C1=O)c1ccccc1`, under “at 12.37 µM”, the inhibition is 48.8%.
`O=C(COC(=O)c1ccc([N+](=O)[O-])s1)Nc1ccc(F)cc1`: where the note is “at 26.34 µM”, the inhibition is 45.3%.
For `Nc1cc2c(cc1Br)[nH]c(=O)c1ccccc12`, the inhibition (at 4.57 µM) was 12.7% (inactive).
As for `Cn1nc(-c2ccccn2)nc2c(=O)n(C)c(=O)nc1-2`, under “at 1.16 µM”, the inhibition is 94%.
As for `COc1cc(Br)c(C(=O)c2nccc3cc(OC)c(OC)cc23)cc1OC`, the inhibition (at 1.13 µM) is 19.1% (inactive).
Consider `CC1COCC(C)N1C1=C(Cl)C(=O)c2ccccc2C1=O` (stereo not drawn), for which, where the note is “at 14.67 µM”, the inhibition was 23.4%.
Regarding `O=C1Cc2ccccc2C(=O)N1Cc1ccccc1`, the inhibition (at 1.31 µM) was 49.6%.
For the compound `CCOC(=O)N=Nc1c2ccccc2c2nc3no[nH]c3nc12`, where the note is “at 7.75 µM”, the inhibition was 26.4%.
For the compound `O=C(/C=C/c1ccc(O)cc1)c1ccc(NC2=C(N3CCCCC3)C(=O)c3ccccc3C2=O)cc1`, for the setting “at 10.17 µM”, the inhibition is 41%.
Take `O=C1Cc2ccccc2C(=O)N1`: the inhibition (at 0.6 µM) is 57.1%.
With `CC1CCCC(NC(=O)COC(=O)c2ccc([N+](=O)[O-])s2)C1C` (stereo not drawn), under “at 31.32 µM”, the inhibition is 22.6%.
As to `CCc1cc[n+](C2=C(NS(=O)(=O)c3cccs3)C(=O)c3ccccc3C2=O)cc1`, the inhibition (at 14.16 µM) is 18.8% (inactive).
`O=c1[nH]c(Nc2ccccc2)cc2cc(Br)ccc12`: the inhibition (at 1.45 µM) is 15.8% (inactive).
With `O=C(COC(=O)c1ccc([N+](=O)[O-])s1)Nc1ncc(C(F)(F)F)cc1Cl`, the inhibition (at 27.79 µM) is 42.1%.
As for `COC(CNC(=O)c1ccc2c3c(onc13)-c1ccccc1C2=O)OC`, the inhibition (at 24.19 µM) was 51.7%.
For the compound `NC1=C(Cl)C(=O)c2ccc(S(N)(=O)=O)cc2C1=O`, the inhibition (at 0.39 µM) was 63.1%.
Regarding `O=C(NC1=C(NC2CCS(=O)(=O)C2)C(=O)c2ccccc2C1=O)c1ccccc1` (stereo not drawn), the inhibition (at 14.2 µM) was 49.8%.
Consider `NS(=O)(=O)c1ccc(NC2=CC(=O)C(=O)c3ccccc32)cc1`, for which the inhibition (at 11.51 µM) is 71.8%.
As to `CCn1nc(/C=C/c2ccccc2)nc2c(=O)n(C)c(=O)nc1-2`, the inhibition (at 0.49 µM) is 99%.
`Cc1ccc(NC2=CC(=O)C(=O)c3ccccc32)cc1`: the inhibition (at 12.24 µM) was 85.2%.
As to `O=C(c1ccco1)[C@@H]1[C@@H]2C(=O)N(c3ccc(Br)cc3)C(=O)[C@@H]2C2c3ccccc3C=CN21` (stereo partly drawn), under “at 11.01 µM”, the inhibition was 79.7%.
As to `CC1(C)C=C2C(=NN(c3ccccc3)C(N)=C2C#N)CO1`, under “at 23.49 µM”, the inhibition was 82.1%.
Take `COc1ccccc1NC(=O)COC(=O)c1ccc([N+](=O)[O-])s1`: the inhibition (at 35.07 µM) is 53.8%.
Consider `COC1=C(N)C(=O)c2nc(C)ccc2C1=O`, for which the inhibition (at 4.98 µM) is 71.9%.
`O=C(COC(=O)c1ccc([N+](=O)[O-])s1)NCc1ccc(F)cc1`: the inhibition (at 40.58 µM) is 41%.
As to `COc1ccc2noc3c2c1C(=O)c1ccccc1-3`, where the note is “at 6.28 µM”, the inhibition was 12.4% (inactive).
Take `O=C1C=C(Nc2ccccc2)c2ccccc2C1=O`: the inhibition (at 15.55 µM) was 80.2%.
In the case of `NS(=O)(=O)c1ccc(NC(=O)COC(=O)c2ccc([N+](=O)[O-])s2)cc1`, the inhibition (at 29.01 µM) was 42.6%.
As for `COc1cc(NC(=O)COC(=O)c2ccc([N+](=O)[O-])s2)cc(OC)c1OC`, under “at 21.72 µM”, the inhibition was 44.2%.
Regarding `Cc1c(Cl)cnc(NC(=O)COC(=O)c2ccc([N+](=O)[O-])s2)c1Cl`, the inhibition (at 20.44 µM) was 55.3%.
On to `Cc1ccc(N2C(=O)[C@@H]3[C@H](C2=O)C2c4ccccc4C=CN2[C@@H]3C(=O)c2ccco2)cc1` (stereo partly drawn), for which the inhibition (at 5.2 µM) is 41.3%.
Regarding `O=C(OCc1nnc(-c2ccccc2)o1)c1ccc([N+](=O)[O-])s1`, the inhibition (at 26.04 µM) is 55.6%.
